From ChEMBL document CHEMBL1201862, “PubChem BioAssay data set” (2004)
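Following 48 hours of exposure in 96-well plates, responses at five concentrations were used to interpolate endpoints linearly. GI50 = concentration required for 50% inhibition of growth.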 Activity calls are given as the source filed them. No stated cut-off is given here; in the data, active = GI50 up to about 1.1 µM and inactive = higher.

Key:
Assay in all cases: NCI-60 cell line screen, 48 h
NCI-H226 = tested on: NCI-H226
UO-31 = tested on: UO-31
CAKI-1 = tested on: CAKI-1
COLO 205 = tested on: COLO 205
NCI-H23 = tested on: NCI-H23
IGROV-1 = tested on: IGROV-1
BT-549 = tested on: BT-549
Hs-578T = tested on: Hs-578T
786-0 = tested on: 786-0
A498 = tested on: A498
LOX IMVI = tested on: LOX IMVI
MCF7 = tested on: MCF7
SK-MEL-5 = tested on: SK-MEL-5
MDA-N = tested on: MDA-N
M14 = tested on: M14
DU-145 = tested on: DU-145
U-251 = tested on: U-251
K562 = tested on: K562
SK-MEL-28 = tested on: SK-MEL-28
SF-295 = tested on: SF-295
EKVX = tested on: EKVX
OVCAR-8 = tested on: OVCAR-8
HCC 2998 = tested on: HCC 2998
MDA-MB-231 = tested on: MDA-MB-231
HCT-116 = tested on: HCT-116
SK-MEL-2 = tested on: SK-MEL-2
UACC-257 = tested on: UACC-257
SW-620 = tested on: SW-620
SN12C = tested on: SN12C
TK-10 = tested on: TK-10
HOP-92 = tested on: HOP-92
HT-29 = tested on: HT-29
PC-3 = tested on: PC-3
HCT-15 = tested on: HCT-15
SF-539 = tested on: SF-539
A549 = tested on: A549
SNB-19 = tested on: SNB-19
MDA-MB-435 = tested on: MDA-MB-435
KM12 = tested on: KM12
MOLT-4 = tested on: MOLT-4
ACHN = tested on: ACHN
OVCAR-5 = tested on: OVCAR-5
OVCAR-4 = tested on: OVCAR-4
CCRF-CEM = tested on: CCRF-CEM
SNB-75 = tested on: SNB-75
OVCAR-3 = tested on: OVCAR-3
NCI-H460 = tested on: NCI-H460
NCI/ADR-RES = tested on: NCI/ADR-RES
Malme-3M = tested on: Malme-3M
T47D = tested on: T47D
UACC-62 = tested on: UACC-62
HOP-62 = tested on: HOP-62
SR = tested on: SR
RXF 393 = tested on: RXF 393
SK-OV-3 = tested on: SK-OV-3
HL-60 = tested on: HL-60
NCI-H522 = tested on: NCI-H522
RPMI-8226 = tested on: RPMI-8226
SF-268 = tested on: SF-268

Measured: GI50

Cc1ccc(Cc2n[nH]c(=O)n2N2C(=O)c3ccccc3C2=O)cc1
> 100 µM: HCT-15
inactive: NCI-H226 > 100 µM | UO-31 > 100 µM | CAKI-1 > 100 µM | COLO 205 > 100 µM | NCI-H23 > 100 µM | IGROV-1 > 100 µM | BT-549 > 100 µM | Hs-578T > 100 µM | 786-0 > 100 µM | A498 > 100 µM | LOX IMVI > 100 µM | MCF7 > 100 µM | SK-MEL-5 > 100 µM | MDA-N > 100 µM | M14 > 100 µM | DU-145 > 100 µM | U-251 > 100 µM | K562 > 100 µM | SK-MEL-28 > 100 µM | SF-295 > 100 µM | EKVX > 100 µM | OVCAR-8 > 100 µM | HCC 2998 > 100 µM | MDA-MB-231 > 100 µM | HCT-116 > 100 µM | SK-MEL-2 > 100 µM | UACC-257 > 100 µM | SW-620 > 100 µM | SN12C > 100 µM | TK-10 > 100 µM | HOP-92 > 100 µM | HT-29 > 100 µM | PC-3 > 100 µM | SF-539 > 100 µM | A549 > 100 µM | SNB-19 > 100 µM | MDA-MB-435 > 100 µM | KM12 > 100 µM | MOLT-4 > 100 µM | ACHN > 100 µM | OVCAR-5 > 100 µM | OVCAR-4 > 100 µM | CCRF-CEM > 100 µM | SNB-75 91.4 µM | OVCAR-3 > 100 µM | NCI-H460 > 100 µM | NCI/ADR-RES > 100 µM | Malme-3M > 100 µM | T47D > 100 µM | UACC-62 > 100 µM | HOP-62 > 100 µM | SR > 100 µM

CC(C)=CCC1=C(OCC(=O)O)C(=O)c2ccccc2C1=O
39.4 µM: HCT-15
inactive: NCI-H226 32.4 µM | UO-31 28 µM | CAKI-1 52.5 µM | RXF 393 31.9 µM | COLO 205 60.3 µM | NCI-H23 33 µM | IGROV-1 39.1 µM | BT-549 29.9 µM | Hs-578T 22.2 µM | 786-0 41.1 µM | A498 76.7 µM | LOX IMVI 32.6 µM | MCF7 25.1 µM | SK-MEL-5 19.5 µM | MDA-N 17.9 µM | M14 33 µM | DU-145 33.5 µM | U-251 30.3 µM | K562 33 µM | SK-OV-3 67.9 µM | SK-MEL-28 35 µM | SF-295 11.9 µM | EKVX 37.1 µM | OVCAR-8 38.5 µM | MDA-MB-231 49.8 µM | HCT-116 22.6 µM | SK-MEL-2 25.7 µM | HL-60 14.5 µM | UACC-257 29.1 µM | SW-620 23 µM | SN12C 24.5 µM | TK-10 > 100 µM | HOP-92 47.4 µM | HT-29 47.2 µM | PC-3 31.3 µM | SF-539 27.2 µM | A549 30.8 µM | SNB-19 27.9 µM | MDA-MB-435 15.5 µM | KM12 25.2 µM | MOLT-4 15.9 µM | ACHN 39.4 µM | OVCAR-4 31.9 µM | CCRF-CEM 23.9 µM | SNB-75 24.4 µM | NCI-H522 23.6 µM | RPMI-8226 24.1 µM | NCI-H460 34.5 µM | SF-268 22.3 µM | NCI/ADR-RES 32.1 µM | Malme-3M 19.3 µM | T47D 31.5 µM | UACC-62 19 µM | HOP-62 40.9 µM | SR 34.3 µM
